In the assay the target is T1, human full-length MKNK1 (Homo sapiens, UniProt Q9BUB5, T385D).
T1 construct: GST (N); purchased Carna Biosciences 02-145; host or cells: insect cells (baculovirus expression system)
In words: MKNK1 kinase high ATP assay (TR-FRET). The assay is classed as biochemical. The conditions noted are these: Table 1; MKNK1 kinase high ATP assay, 2 mM ATP; read-out: MKNK1 IC50. In short, it runs like this: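 Full-length human MKNK1 (T385D) preincubated 15 min at 22 °C with compound in HEPES pH 7.5/MgCl2/DTT buffer; reaction with 2 mM ATP (final) and 0.06 μM biotinylated peptide (final), 30 min at 22 °C.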

T1 sequence (Q9BUB5 1-424 isoform Q9BUB5-2 T344D): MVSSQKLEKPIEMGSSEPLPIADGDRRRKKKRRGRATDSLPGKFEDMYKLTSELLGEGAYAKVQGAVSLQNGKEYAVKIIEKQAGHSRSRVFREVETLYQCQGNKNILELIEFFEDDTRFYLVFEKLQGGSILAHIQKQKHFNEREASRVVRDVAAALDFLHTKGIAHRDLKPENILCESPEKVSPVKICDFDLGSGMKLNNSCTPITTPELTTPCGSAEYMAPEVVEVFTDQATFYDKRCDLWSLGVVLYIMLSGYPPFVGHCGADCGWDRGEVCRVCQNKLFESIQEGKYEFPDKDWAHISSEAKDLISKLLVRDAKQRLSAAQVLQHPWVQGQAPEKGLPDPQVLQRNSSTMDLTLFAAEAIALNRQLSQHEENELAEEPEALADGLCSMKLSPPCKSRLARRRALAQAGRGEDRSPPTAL

For the compound `C[C@H]1COCCN1C(=O)[C@H]1CCc2c(sc3ncnc(Nc4cc5cn[nH]c5cc4OCCN4CCCC4)c23)C1` [Example 118, [(3S)-3-Methylmorpholin-4-yl][(7S)-4-({6-[2-(pyrrolidin-1-yl)ethoxy]-1H-indazol-5-yl}amino)-5,6,7,8-tetrahydro[1]benzothieno[2,3-d]pyrimidin-7-yl]methanone], the IC50 is 92.3 nM.
`C[C@H]1COCCN1C(=O)[C@H]1CCc2c(sc3ncnc(Nc4cc5cn[nH]c5cc4OCCN4CCCCC4)c23)C1` [Example 119, [(3S)-3-Methylmorpholin-4-yl][(7S)-4-({6-[2-(piperidin-1-yl)ethoxy]-1H-indazol-5-yl}amino)-5,6,7,8-tetrahydro[1]benzothieno[2,3-d]pyrimidin-7-yl]methanone]: the IC50 stood at 757 nM.
Under `COc1cc2[nH]ncc2cc1Nc1ncnc2sc3c(c12)CC[C@H](C(=O)N1C[C@@H]2C[C@H]1CN2C)C3` [Example 120, {(7S)-4-[(6-Methoxy-1H-indazol-5-yl)amino]-5,6,7,8-tetrahydro[1]benzothieno[2,3-d]pyrimidin-7-yl}[(1S,4S)-5-methyl-2,5-diazabicyclo[2.2.1]hept-2-yl]methanone] stands 0.2 nM; under `COc1cc2[nH]ncc2cc1Nc1ncnc2sc3c(c12)CC[C@H](C(=O)N1C[C@H]2C[C@@H]1CN2C)C3` [Example 121, {(7S)-4-[(6-Methoxy-1H-indazol-5-yl)amino]-5,6,7,8-tetrahydro[1]benzothieno[2,3-d]pyrimidin-7-yl}[(1R,4R)-5-methyl-2,5-diazabicyclo[2.2.1]hept-2-yl]methanone], 0.3 nM.
For `CCOc1cc2[nH]ncc2cc1Nc1ncnc2sc3c(c12)CC[C@H](C(=O)N1CCC(N(C)C)CC1)C3` [Example 122, [4-(Dimethylamino)piperidin-1-yl]{(7S)-4-[(6-ethoxy-1H-indazol-5-yl)amino]-5,6,7,8-tetrahydro[1]benzothieno[2,3-d]pyrimidin-7-yl}methanone] the value was 0.2 nM; for `COc1cc2[nH]ncc2cc1Nc1ncnc2sc3c(c12)CC[C@H](C(=O)N(C)CCC(F)(F)F)C3` [Example 123, (7S)-4-[(6-Methoxy-1H-indazol-5-yl)amino]-N-methyl-N-(3,3,3-trifluoropropyl)-5,6,7,8-tetrahydro[1]benzothieno[2,3-d]pyrimidine-7-carboxamide], 0.4 nM.
Take `COc1cc2[nH]ncc2cc1Nc1ncnc2sc3c(c12)CC[C@H](C(=O)N(C)CC(C)(C)O)C3` [Example 124, (7S)—N-(2-Hydroxy-2-methylpropyl)-4-[(6-methoxy-1H-indazol-5-yl)amino]-N-methyl-5,6,7,8-tetrahydro[1]benzothieno[2,3-d]pyrimidine-7-carboxamide]: the half-inhibitory concentration (IC50) is 0.3 nM.
Under `CC(C)Oc1cc2[nH]ncc2cc1Nc1ncnc2sc3c(c12)CC[C@H](C(=O)N(C)CCC(F)(F)F)C3` [Example 125, (7S)—N-Methyl-4-{[6-(propan-2-yloxy)-1H-indazol-5-yl]amino}-N-(3,3,3-trifluoropropyl)-5,6,7,8-tetrahydro[1]benzothieno[2,3-d]pyrimidine-7-carboxamide] stands 0.4 nM; under `CC(C)Oc1cc2[nH]ncc2cc1Nc1ncnc2sc3c(c12)CC[C@H](C(=O)N(C)CC(C)(C)O)C3` [Example 126, (7S)—N-(2-Hydroxy-2-methylpropyl)-N-methyl-4-{[6-(propan-2-yloxy)-1H-indazol-5-yl]amino}-5,6,7,8-tetrahydro[1]benzothieno[2,3-d]pyrimidine-7-carboxamide], 0.3 nM; under `CC(C)N(C(=O)[C@H]1CCc2c(sc3ncnc(Nc4ccc5[nH]ncc5c4)c23)C1)C(C)C` [Example 127, (7S)-4-(1H-Indazol-5-ylamino)-N,N-di(propan-2-yl)-5,6,7,8-tetrahydro[1]benzothieno[2,3-d]pyrimidine-7-carboxamide], 6.5 nM.
Under `C=CCN(C)c1cc2[nH]ncc2cc1Nc1ncnc2sc3c(c12)CC[C@H](C(=O)N(C)C)C3` [Example 128, (7S)—N,N-Dimethyl-4-({6-[methyl(prop-2-en-1-yl)amino]-1H-indazol-5-yl}amino)-5,6,7,8-tetrahydro[1]benzothieno[2,3-d]pyrimidine-7-carboxamide] stands 1 nM.
With `CC(C)Oc1cc2[nH]ncc2c(F)c1Nc1ncnc2sc3c(c12)CC[C@H](C(=O)N(C)C)C3` [Example 129, (7S)-4-{[4-Fluoro-6-(propan-2-yloxy)-1H-indazol-5-yl]amino}-N,N-dimethyl-5,6,7,8-tetrahydro[1]benzothieno[2,3-d]pyrimidine-7-carboxamide], the 50% inhibitory concentration (IC50) worked out at 8.9 nM.
For `C[C@@H]1COCCN1C(=O)[C@H]1CCc2c(sc3ncnc(Nc4cc5cn[nH]c5cc4OCCN)c23)C1` [Example 130, [(7S)-4-{[6-(2-Aminoethoxy)-1H-indazol-5-yl]amino}-5,6,7,8-tetrahydro[1]benzothieno[2,3-d]pyrimidin-7-yl][(3R)-3-methylmorpholin-4-yl]methanone] the value was 0.9 nM; for `C[C@H]1COCCN1C(=O)[C@H]1CCc2c(sc3ncnc(Nc4cc5cn[nH]c5cc4OCCN)c23)C1` [Example 131, [(7S)-4-{[6-(2-Aminoethoxy)-1H-indazol-5-yl]amino}-5,6,7,8-tetrahydro[1]benzothieno[2,3-d]pyrimidin-7-yl][(3S)-3-methylmorpholin-4-yl]methanone], 0.4 nM; for `CN(C)C1CCN(c2cc3[nH]ncc3cc2Nc2ncnc3sc4c(c23)CC[C@H](C(=O)N2CCC2)C4)CC1` [Example 132, Azetidin-1-yl[(7S)-4-({6-[4-(dimethylamino)piperidin-1-yl]-1H-indazol-5-yl}amino)-5,6,7,8-tetrahydro[1]benzothieno[2,3-d]pyrimidin-7-yl]methanone], 27.2 nM.
Under `CN(C)C1CCN(c2cc3[nH]ncc3cc2Nc2ncnc3sc4c(c23)CC[C@H](C(=O)N2CCOCC2)C4)CC1` [Example 133, [(7S)-4-({6-[4-(Dimethylamino)piperidin-1-yl]-1H-indazol-5-yl}amino)-5,6,7,8-tetrahydro[1]benzothieno[2,3-d]pyrimidin-7-yl](morpholin-4-yl)methanone] stands 37.9 nM.
`CN(C)CCOc1cc2[nH]ncc2cc1Nc1ncnc2sc3c(c12)CC[C@H](C(=O)N1CCC(N(C)C)CC1)C3` [Example 134, [(7S)-4-({6-[2-(Dimethylamino)ethoxy]-1H-indazol-5-yl}amino)-5,6,7,8-tetrahydro[1]benzothieno[2,3-d]pyrimidin-7-yl][4-(dimethylamino)piperidin-1-yl]methanone]: the IC50 is 8.3 nM.
Consider `C[C@H]1COCCN1C(=O)[C@H]1CCc2c(sc3ncnc(Nc4cc5cn[nH]c5cc4N4CCC(N(C)C)CC4)c23)C1` [Example 135, [(7S)-4-({6-[4-(Dimethylamino)piperidin-1-yl]-1H-indazol-5-yl}amino)-5,6,7,8-tetrahydro[1]benzothieno[2,3-d]pyrimidin-7-yl][(3S)-3-methylmorpholin-4-yl]methanone], for which the IC50 turned out to be 14.1 nM.
Under `C[C@@H]1COCCN1C(=O)[C@H]1CCc2c(sc3ncnc(Nc4cc5cn[nH]c5cc4N4CCC(N(C)C)CC4)c23)C1` [Example 136, [(7S)-4-({6-[4-(Dimethylamino)piperidin-1-yl]-1H-indazol-5-yl}amino)-5,6,7,8-tetrahydro[1]benzothieno[2,3-d]pyrimidin-7-yl][(3R)-3-methylmorpholin-4-yl]methanone] stands 24 nM; under `C[C@@H]1CN(C(=O)[C@H]2CCc3c(sc4ncnc(Nc5cc6cn[nH]c6cc5N5CCC(N(C)C)CC5)c34)C2)C[C@H](C)O1` [Example 137, [(7S)-4-({6-[4-(Dimethylamino)piperidin-1-yl]-1H-indazol-5-yl}amino)-5,6,7,8-tetrahydro[1]benzothieno[2,3-d]pyrimidin-7-yl][(2R,6S)-2,6-dimethylmorpholin-4-yl]methanone], 33 nM.
Take `CN(C)C1CCN(C(=O)[C@H]2CCc3c(sc4ncnc(Nc5cc6cn[nH]c6cc5OCCN5CCCC5)c34)C2)CC1` [Example 138, [4-(Dimethylamino)piperidin-1-yl][(7S)-4-({6-[2-(pyrrolidin-1-yl)ethoxy]-1H-indazol-5-yl}amino)-5,6,7,8-tetrahydro[1]benzothieno[2,3-d]pyrimidin-7-yl]methanone]: the 50% inhibitory concentration (IC50) stood at 192 nM.
As for `CN(C)C1CCN(C(=O)[C@H]2CCc3c(sc4ncnc(Nc5cc6cn[nH]c6cc5OCCN5CCCCC5)c34)C2)CC1` [Example 139, [4-(Dimethylamino)piperidin-1-yl][(7S)-4-({6-[2-(piperidin-1-yl)ethoxy]-1H-indazol-5-yl}amino)-5,6,7,8-tetrahydro[1]benzothieno[2,3-d]pyrimidin-7-yl]methanone], the IC50 amounted to 95 nM.
For `C[C@H](CN)Oc1cc2[nH]ncc2cc1Nc1ncnc2sc3c(c12)CC[C@H](C(=O)N1CCOC[C@@H]1C)C3` [Example 140, {(7S)-4-[(6-{[(2R)-1-Aminopropan-2-yl]oxy}-1H-indazol-5-yl)amino]-5,6,7,8-tetrahydro[1]benzothieno[2,3-d]pyrimidin-7-yl}[(3S)-3-methylmorpholin-4-yl]methanone] the value was 0.4 nM; for `C[C@@H](CN)Oc1cc2[nH]ncc2cc1Nc1ncnc2sc3c(c12)CC[C@H](C(=O)N(C)C)C3` [Example 141, (7S)-4-[(6-{[(25)-1-Aminopropan-2-yl]oxy}-1H-indazol-5-yl)amino]-N,N-dimethyl-5,6,7,8-tetrahydro[1]benzothieno[2,3-d]pyrimidine-7-carboxamide], 3.4 nM.
For `C[C@H](N)COc1cc2[nH]ncc2cc1Nc1ncnc2sc3c(c12)CC[C@H](C(=O)N(C)C)C3` [Example 142, (7S)-4-[(6-{[(2S)-2-Aminopropyl]oxy}-1H-indazol-5-yl)amino]-N,N-dimethyl-5,6,7,8-tetrahydro[1]benzothieno[2,3-d]pyrimidine-7-carboxamide] the value was 3.5 nM.

Source of the values: patent US20160297833A1, “THIENOPYRIMIDINES AS MKNK1 AND MKNK2 INHIBITORS” (BAYER PHARMA AKTIENGESELLSCHAFT, priority 2013, published 2016).
